“Also recorded” adds a separate entry of the source.
Legend:
aged-impaired (AI) rats [1] = assay: Morris water maze behavioral task after ICV infusion; format: in vivo, rat; conditions: 100 μg ICV
Method: The effects of 6,6 dimethyl-3-(3-hydroxypropyl)thio-1-(thiazol-2-yl)-6,7-dihydro-2-benzothiophen-4(5H)-one on the in vivo spatial memory retention of aged-impaired (AI) rats were assessed in a Morris water maze behavioral task. A water maze is a pool surrounded with a novel set of patterns relative to the maze.
Cognitively impaired aged rats were implanted unilaterally with a cannula into the lateral ventricle. Stereotaxic coordinates were 1.0 mm posterior to bregma, 1.5 mm lateral to midline, and 3.5 mm ventral to the skull surface. After about a week of recovery, the rats were pre-trained in a water maze for 2 days (6 trials per day) to locate a submerged escape platform hidden underneath the surface of the pool, in which the escape platform location varied from day to day. No intracerebroventricular (ICV) infusion was given during pre-training
After pre-training, rats received ICV infusion of either 100 μg 6,6 dimethyl-3-(3-hydroxypropyl)thio-1-(thiazol-2-yl)-6,7-dihydro-2-benzothiophen-4(5H)-one (n=6) in 5 μl DMSO or vehicle DMSO (n=5) 40 min prior to water maze training and testing. Training consisted of 8 trials per day for 2 days where the hidden escape platform remained in the same location. Rats were given 60 seconds to locate the platform with a 60 seconds inter-trial interval. The rats were given a probe test (120 seconds) 24 hr after the end of training where the escape platform was removed. During the training, there were 4 blocks, where each block had 4 training trials.
Rats treated with vehicle and 6,6 dimethyl-3-(3-hydroxypropyl)thio-1-(thiazol-2-yl)-6,7-dihydro-2-benzothiophen-4(5H)-one found the escape platform about the same time at the beginning of training (block 1). In this block of training, rats treated with vehicle and 6,6 dimethyl-3-(3-hydroxypropyl)thio-1-(thiazol-2-yl)-6,7-dihydro-2-benzothiophen-4(5H)-one both spent about 24 seconds to find the escape platform. However, rats treated with 6,6 dimethyl-3-(3-hydroxypropyl)thio-1-(thiazol-2-yl)-6,7-dihydro-2-benzothiophen-4(5H)-one were able to find the platform more proficiently (i.e., quicker) at the end of training (block 4) than those treated with vehicle alone. In block 4, rats treated with 6,6 dimethyl-3-(3-hydroxypropyl)thio-1-(thiazol-2-yl)-6,7-dihydro-2-benzothiophen-4(5H)-one spent about 9.6 seconds to find the escape platform, while rats treated with vehicle spent about 19.69 seconds.
During a test trial 24 hr after training, the escape platform was removed. The search/swim pattern of the rats was used to measure whether the rats remember where the escape platform was located during pre-trial training in order to test for the long-term memory of the rats. […]

aged-impaired (AI) rats [2] = assay: Radial Arm Maze (RAM) behavioral task, spatial memory retention; format: in vivo, rat; conditions: four-hour delay RAM
Method: The effects of methyl 3,5-diphenylpyridazine-4-carboxylate on the in vivo spatial memory retention of aged-impaired (AI) rats were assessed in a Radial Arm Maze (RAM) behavioral task using vehicle control and four different dosage levels of methyl 3,5-diphenylpyridazine-4-carboxylate (0.1 mg/kg, 0.3 mg/kg, 1 mg/kg and 3 mg/kg, ip). RAM behavioral tasks were performed on eight AI rats. All five treatment conditions (vehicle and four dosage levels) were tested on all eight rats.
The RAM apparatus used consisted of eight equidistantly-spaced arms. An elevated maze arm (7 cm width×75 cm length) projected from each facet of an octagonal center platform (30 cm diameter, 51.5 cm height). Clear side walls on the arms were 10 cm high and were angled at 65° to form a trough. A food well (4 cm diameter, 2 cm deep) was located at the distal end of each arm. Froot Loops™ (Kellogg Company) were used as rewards. Blocks constructed of Plexiglas™ (30 cm height×12 cm width) could be positioned to prevent entry to any arm. Numerous extra maze cues surrounding the apparatus were also provided.
The AI rats were initially subjected to a pre-training test (Chappell et al. Neuropharmacology 37: 481-487, 1998). The pre-training test consisted of a habituation phase (4 days), a training phase on the standard win-shift task (18 days) and another training phase (14 days) in which a brief delay was imposed between presentation of a subset of arms designated by the experimenter (e.g., 5 arms available and 3 arms blocked) and completion of the eight-arm win-shift task (i.e., with all eight arms available).
In the habituation phase, rats were familiarized to the maze for an 8-minute session on four consecutive days. In each of these sessions, food rewards were scattered on the RAM, initially on the center platform and arms and then progressively confined to the arms. After this habituation phase, a standard training protocol was used, in which a food pellet was located at the end of each arm. Rats received one trial each day for 18 days. Each daily trial terminated when all eight food pellets had been obtained or when either 16 choices were made or 15 minutes had elapsed. After completion of this training phase, a second training phase was carried out in which the memory demand was increased by imposing a brief delay during the trial. At the beginning of each trial, three arms of the eight-arm maze were blocked. Rats were allowed to obtain food on the five arms to which access was permitted during this initial “information phase” of the trial. Rats were then removed from the maze for 60 seconds, during which time the barriers on the maze were removed, thus allowing access to all eight arms. […]

GABAA α5 receptor = GABAA α5 receptor (Rattus norvegicus, UniProt P18508+P19969); assay: GABAA α5 receptor occupancy in vivo with Ro 15-4513 tracer (hippocampus vs cerebellum); conditions: i.v.
Description: Adult male Long Evans rats (265-295 g, Charles River, Portage, Mich., n=4/group) were used for GABAA α5 receptor occupancy studies. Rats were individually housed in ventilated stainless-steel racks on a 12:12 light/dark cycle. Food and water were available ad libitum.
Ro 15-4513 was used as a receptor occupancy (RO) tracer for GABAA α5 receptor sites in the hippocampus and cerebellum. Ro 15-4513 was chosen as the tracer based on its selectivity for GABAA α5 receptors relative to other alpha subunit containing GABAA receptors and because it has been successfully used for GABAA α5 RO studies in animals and humans (see, e.g., Lingford-Hughes et al., J. Cereb. Blood Flow Metab. 22:878-89 (2002); Pym et al, Br. J. Pharmacol. 146: 817-825 (2005); and Maeda et al., Synapse 47: 200-208 (2003)). Ro 15-4513 (1 μg/kg), was dissolved in 25% hydroxyl-propyl beta-cyclodextrin and administered i.v. 20′ prior to the RO evaluations. Methyl 3,5-diphenylpyridazine-4-carboxylate (0.1-10 mg/kg) was synthesized by Nox Pharmaceuticals (India) and was dissolved in 25% hydroxyl-propyl beta-cyclodextrin and administered i.v. 15′ prior to tracer injection.
The rats were sacrificed by cervical dislocation 20′ post tracer injection. The whole brain was rapidly removed, and lightly rinsed with sterile water. Trunk blood was collected in EDTA coated eppendorf tubes and stored on wet ice until study completion. Hippocampus and cerebellum were dissected and stored in 1.5 ml eppendorf tubes, and placed on wet ice until tissue extraction. In a drug naïve rat, six cortical brain tissues samples were collected for use in generating blank and standard curve samples.
Acetonitrile containing 0.1% formic acid was added to each sample at a volume of four times the weight of the tissue sample. For the standard curve (0.1-30 ng/g) samples, a calculated volume of standard reduced the volume of acetonitrile. The sample was homogenized (FastPrep-24, Lysing Matrix D; 5.5 m/s, for 60 seconds or 7-8 watts power using sonic probe dismembrator; Fisher Scientific) and centrifuged for 16-minutes at 14,000 rpm. The (100 μl) supernatant solution was diluted by 300 μl of sterile water (pH 6.5). This solution was then mixed thoroughly and analyzed via LC/MS/MS for […] (tracer) and methyl 3,5-diphenylpyridazine-4-carboxylate.
Receptor occupancy was determined by the ratio method which compared occupancy in the hippocampus (a region of high GABAA α5 receptor density) with occupancy in the cerebellum (a region with low GABAA α5 receptor density) and additionally by a high dose of the GABAA α5 negative allosteric modulator L-655,708 (10 mg/kg, i.v.) to define full occupancy.

[3] = probe test 24 hr after training

Sequence of GABAA α5 receptor (P19969 32-464 limits assumed): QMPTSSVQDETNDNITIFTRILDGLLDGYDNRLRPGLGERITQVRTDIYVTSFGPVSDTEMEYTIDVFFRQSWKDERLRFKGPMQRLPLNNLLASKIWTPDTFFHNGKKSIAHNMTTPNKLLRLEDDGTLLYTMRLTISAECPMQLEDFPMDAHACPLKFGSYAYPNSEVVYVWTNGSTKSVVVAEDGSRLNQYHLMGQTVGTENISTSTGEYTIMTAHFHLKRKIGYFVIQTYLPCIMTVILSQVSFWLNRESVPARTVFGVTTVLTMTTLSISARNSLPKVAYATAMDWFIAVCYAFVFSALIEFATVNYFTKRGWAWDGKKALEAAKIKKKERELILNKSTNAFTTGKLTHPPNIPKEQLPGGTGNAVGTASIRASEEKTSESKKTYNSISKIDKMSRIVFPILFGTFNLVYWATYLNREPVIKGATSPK
Sequence of GABAA α5 receptor (P18508 39-466): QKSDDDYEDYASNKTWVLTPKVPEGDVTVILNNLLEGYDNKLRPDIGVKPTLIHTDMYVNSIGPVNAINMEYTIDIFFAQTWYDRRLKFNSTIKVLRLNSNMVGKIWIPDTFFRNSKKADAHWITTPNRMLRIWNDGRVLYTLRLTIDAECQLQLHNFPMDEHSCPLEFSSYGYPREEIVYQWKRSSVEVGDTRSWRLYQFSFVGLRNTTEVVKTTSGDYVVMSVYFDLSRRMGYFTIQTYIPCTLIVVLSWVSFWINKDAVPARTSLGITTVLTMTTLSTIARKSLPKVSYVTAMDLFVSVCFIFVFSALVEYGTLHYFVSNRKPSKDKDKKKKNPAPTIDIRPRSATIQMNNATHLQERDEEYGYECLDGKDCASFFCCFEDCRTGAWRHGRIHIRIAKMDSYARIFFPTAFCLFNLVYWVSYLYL
Sequence of GABAA α5 receptor (P63079 26-473 partner): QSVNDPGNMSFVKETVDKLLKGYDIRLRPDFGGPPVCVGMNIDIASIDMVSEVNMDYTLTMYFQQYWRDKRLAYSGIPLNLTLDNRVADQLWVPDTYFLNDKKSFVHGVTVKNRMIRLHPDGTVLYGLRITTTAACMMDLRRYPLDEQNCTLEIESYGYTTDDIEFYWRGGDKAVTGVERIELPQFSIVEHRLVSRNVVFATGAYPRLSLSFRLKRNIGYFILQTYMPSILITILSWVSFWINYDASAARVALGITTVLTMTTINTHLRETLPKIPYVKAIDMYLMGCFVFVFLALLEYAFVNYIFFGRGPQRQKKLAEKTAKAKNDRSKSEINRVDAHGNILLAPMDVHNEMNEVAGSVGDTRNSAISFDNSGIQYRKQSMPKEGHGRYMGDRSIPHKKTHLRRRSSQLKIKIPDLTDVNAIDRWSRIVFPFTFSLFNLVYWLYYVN

CC1(C)CC(=O)c2c(SCCCO)sc(-c3nccs3)c2C1 [6,6 dimethyl-3-(3-hydroxypropyl)thio-1-(thiazol-2-yl)-6,7-dihydro-2-benzothiophen-4(5H)-one]
time to find the escape platform (escape latency), block 1 (aged-impaired (AI) rats [1]; beginning of training): about 24 seconds
time to find the escape platform (escape latency), block 4 (aged-impaired (AI) rats [1]; end of training): about 9.6 seconds
number of crossings of target annulus compared to opposite annulus (aged-impaired (AI) rats [1]; [3]): more often
time in target annulus compared to opposite annulus (aged-impaired (AI) rats [1]; [3]): significantly more time in the target annulus

CCOC(=O)c1ncn2c1Cn1c(C)nnc1-c1cc(OC)ccc1-2 [ethyl 3-methoxy-7-methyl-9H-benzo[f]imidazo[1,5-a][1,2,4]triazolo[4,3-d][1,4]diazepine-10-carboxylate]
memory performance relative to vehicle control (aged-impaired (AI) rats [2]; 3 mg/kg): significantly improved memory performance
memory performance relative to vehicle control (aged-impaired (AI) rats [2]; 10 mg/kg): significantly improved memory performance
Ro 15-4513 binding in hippocampus (GABAA α5 receptor; 0.01-10 mg/kg): blocked; also recorded: reduced
cerebellum levels (binding) of Ro 15-4513 (GABAA α5 receptor; 0.01-10 mg/kg): did not affect; also recorded: without affecting
GABAA α5 receptor occupancy (GABAA α5 receptor; 10 mg/kg): > 90%
